The values below are quoted from earlier work in patent US10639299B2, “Calcium sensing receptors, ligands, compositions, and methods of use” (Georgia State University Research Foundation, Inc., priority 2016, dated 2020).

Molecules are shown by their SMILES.

The target in data set [1] is T1, CaSR (Homo sapiens, UniProt P41180).
T1 sequence (P41180 20-1078): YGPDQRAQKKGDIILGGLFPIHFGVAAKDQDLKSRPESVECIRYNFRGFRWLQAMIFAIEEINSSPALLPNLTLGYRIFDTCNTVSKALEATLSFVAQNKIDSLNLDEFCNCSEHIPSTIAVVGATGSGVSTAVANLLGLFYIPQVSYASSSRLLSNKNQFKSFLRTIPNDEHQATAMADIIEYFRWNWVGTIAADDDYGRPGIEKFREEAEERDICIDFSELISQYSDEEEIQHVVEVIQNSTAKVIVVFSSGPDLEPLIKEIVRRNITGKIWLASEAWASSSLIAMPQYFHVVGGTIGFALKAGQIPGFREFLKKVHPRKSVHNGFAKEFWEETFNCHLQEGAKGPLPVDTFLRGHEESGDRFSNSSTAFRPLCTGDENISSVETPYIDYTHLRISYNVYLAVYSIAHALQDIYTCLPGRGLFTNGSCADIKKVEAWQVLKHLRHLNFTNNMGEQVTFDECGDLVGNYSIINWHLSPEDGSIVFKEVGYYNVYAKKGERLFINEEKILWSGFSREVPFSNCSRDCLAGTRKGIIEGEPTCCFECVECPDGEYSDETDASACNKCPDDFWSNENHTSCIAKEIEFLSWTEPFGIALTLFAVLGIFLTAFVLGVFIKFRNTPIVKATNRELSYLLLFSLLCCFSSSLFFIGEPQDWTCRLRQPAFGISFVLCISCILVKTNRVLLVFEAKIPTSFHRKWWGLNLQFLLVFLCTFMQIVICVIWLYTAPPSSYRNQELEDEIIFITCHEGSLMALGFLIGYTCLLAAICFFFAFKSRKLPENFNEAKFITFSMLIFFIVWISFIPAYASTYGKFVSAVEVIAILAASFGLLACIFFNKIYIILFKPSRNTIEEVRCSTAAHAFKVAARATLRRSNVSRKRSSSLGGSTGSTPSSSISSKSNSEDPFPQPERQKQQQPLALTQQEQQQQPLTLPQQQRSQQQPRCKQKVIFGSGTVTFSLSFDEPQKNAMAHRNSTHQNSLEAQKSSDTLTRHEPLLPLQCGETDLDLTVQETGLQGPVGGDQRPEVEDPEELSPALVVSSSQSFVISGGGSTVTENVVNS
More on the design: host or cells: HEK cells, transient. Conditions: HEK cells, in the presence of 150 mM NaCl; read-out: EC50 for intracellular calcium responses; cited from earlier work. (Calcium assays in cells follow changes in intracellular calcium, usually with a dye or a luminescent sensor.)

The next data set has as its target T2, rat CaSR (Rattus norvegicus, UniProt P48442).
T2 construct: host or cells: CHO cells, transient
T2 sequence (P48442 20-1079): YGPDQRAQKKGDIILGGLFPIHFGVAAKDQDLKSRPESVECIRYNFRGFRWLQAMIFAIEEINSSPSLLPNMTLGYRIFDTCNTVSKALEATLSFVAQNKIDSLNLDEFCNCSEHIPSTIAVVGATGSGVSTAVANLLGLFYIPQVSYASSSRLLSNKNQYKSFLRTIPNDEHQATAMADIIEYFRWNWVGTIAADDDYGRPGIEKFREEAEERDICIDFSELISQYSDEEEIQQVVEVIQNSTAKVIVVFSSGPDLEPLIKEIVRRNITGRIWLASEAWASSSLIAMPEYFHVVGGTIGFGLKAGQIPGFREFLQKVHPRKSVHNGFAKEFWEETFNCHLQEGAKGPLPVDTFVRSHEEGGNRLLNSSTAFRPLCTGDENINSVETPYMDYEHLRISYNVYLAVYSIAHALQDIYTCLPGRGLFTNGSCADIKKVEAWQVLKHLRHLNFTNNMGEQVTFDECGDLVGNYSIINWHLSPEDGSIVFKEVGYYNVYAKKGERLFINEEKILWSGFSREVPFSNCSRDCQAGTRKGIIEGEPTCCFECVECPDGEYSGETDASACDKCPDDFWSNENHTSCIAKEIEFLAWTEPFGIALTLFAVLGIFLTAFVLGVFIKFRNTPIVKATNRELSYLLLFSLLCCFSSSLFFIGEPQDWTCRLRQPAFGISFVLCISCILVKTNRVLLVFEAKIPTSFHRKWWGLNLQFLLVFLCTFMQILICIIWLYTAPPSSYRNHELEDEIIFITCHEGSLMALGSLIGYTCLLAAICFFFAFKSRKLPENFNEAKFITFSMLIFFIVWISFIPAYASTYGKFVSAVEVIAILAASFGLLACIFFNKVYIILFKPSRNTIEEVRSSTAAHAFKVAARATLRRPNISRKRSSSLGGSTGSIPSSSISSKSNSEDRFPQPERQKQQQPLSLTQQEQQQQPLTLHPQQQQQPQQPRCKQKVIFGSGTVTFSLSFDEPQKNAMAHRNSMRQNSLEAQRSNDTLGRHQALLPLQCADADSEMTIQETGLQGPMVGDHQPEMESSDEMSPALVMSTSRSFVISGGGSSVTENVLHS
Conditions: CHO cells; cited from earlier work.

Data set [2] has as its target T3, CaSR (Bos taurus, UniProt P35384).
T3 construct: host or cells: X. laevis oocytes
T3 sequence (P35384 20-1085): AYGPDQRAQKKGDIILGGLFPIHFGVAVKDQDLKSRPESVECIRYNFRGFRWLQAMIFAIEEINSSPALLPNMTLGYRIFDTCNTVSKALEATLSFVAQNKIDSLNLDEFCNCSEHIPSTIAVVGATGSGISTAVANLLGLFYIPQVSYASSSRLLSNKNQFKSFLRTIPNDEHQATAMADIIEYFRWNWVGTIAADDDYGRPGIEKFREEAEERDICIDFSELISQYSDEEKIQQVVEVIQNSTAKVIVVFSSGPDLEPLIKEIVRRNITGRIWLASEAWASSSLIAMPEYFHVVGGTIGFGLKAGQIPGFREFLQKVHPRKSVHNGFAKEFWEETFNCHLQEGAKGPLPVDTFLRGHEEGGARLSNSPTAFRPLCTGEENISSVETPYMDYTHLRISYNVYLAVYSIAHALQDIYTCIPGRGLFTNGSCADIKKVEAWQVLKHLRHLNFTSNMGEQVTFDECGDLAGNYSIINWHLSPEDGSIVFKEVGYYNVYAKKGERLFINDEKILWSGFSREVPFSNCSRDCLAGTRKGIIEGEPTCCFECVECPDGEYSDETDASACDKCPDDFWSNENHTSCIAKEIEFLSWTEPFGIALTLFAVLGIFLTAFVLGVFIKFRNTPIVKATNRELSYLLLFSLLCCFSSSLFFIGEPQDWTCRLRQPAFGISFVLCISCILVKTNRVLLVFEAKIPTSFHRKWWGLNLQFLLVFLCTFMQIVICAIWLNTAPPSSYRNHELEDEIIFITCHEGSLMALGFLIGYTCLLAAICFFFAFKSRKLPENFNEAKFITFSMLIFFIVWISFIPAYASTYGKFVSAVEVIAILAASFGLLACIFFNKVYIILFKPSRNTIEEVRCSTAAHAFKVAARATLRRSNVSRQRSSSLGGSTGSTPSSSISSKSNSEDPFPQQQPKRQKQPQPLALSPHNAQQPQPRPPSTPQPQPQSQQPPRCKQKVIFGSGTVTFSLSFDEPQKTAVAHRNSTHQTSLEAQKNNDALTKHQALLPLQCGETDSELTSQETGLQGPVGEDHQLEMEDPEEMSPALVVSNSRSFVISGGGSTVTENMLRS
Conditions: X. laevis oocytes; cited from earlier work.

Usually EC50 stands for the concentration needed to bring the measured effect to its halfway point. As for `[Mg+2]` [Mg^2+, magnesium], the EC50 on CaSR [1] is 15 to 20 mM; at CaSR [2], 10 mM. Further, at rat CaSR, the “EC50 relative to that of Ca^2+” value is “about twice”.
